The NIST ThermoML archive (doi:10.1016/j.jct.2018.12.009)
Numbers after ± are expanded uncertainties.

Assay: molar heat capacity at constant volume
Conditions: Mass density=329.2 kg/m3

CC(C)O [propan-2-ol]
molar heat capacity at constant volume [J/K/mol]
Conditions | Fluid (supercritical or subcritical phases) | Liquid
314.29 K | 177.46 ± 8.2 | –
314.52 K | 182.81 ± 8.5 | –
314.8 K | 184.67 ± 8.5 | –
315.05 K | 181.49 ± 8.4 | –
315.3 K | 177.88 ± 8.2 | –
315.42 K | 176.26 ± 8.2 | –
315.61 K | 174.88 ± 8.1 | –
315.8 K | 178.6 ± 8.3 | –
341.91 K | 203.12 ± 9.4 | –
342.08 K | 202.22 ± 9.4 | –
342.2 K | 203.54 ± 9.4 | –
342.32 K | 207.27 ± 9.6 | –
342.49 K | 201.32 ± 9.3 | –
342.67 K | 203.72 ± 9.4 | –
342.79 K | 202.76 ± 9.4 | –
342.91 K | 201.62 ± 9.4 | –
343.03 K | 204.08 ± 9.5 | –
369.05 K | 225.9 ± 10 | –
369.16 K | 220.01 ± 10 | –
369.28 K | 231.31 ± 11 | –
369.39 K | 222.83 ± 10 | –
369.5 K | 225.96 ± 10 | –
369.67 K | 223.55 ± 10 | –
369.84 K | 221.75 ± 10 | –
369.96 K | 221.03 ± 10 | –
370.07 K | 219.47 ± 10 | –
391.32 K | 243.38 ± 11 | –
391.53 K | 248.85 ± 12 | –
391.54 K | 243.44 ± 11 | –
391.65 K | 246.93 ± 11 | –
391.76 K | 235.69 ± 11 | –
391.87 K | 241.16 ± 11 | –
391.98 K | 242.54 ± 11 | –
392.09 K | 244.11 ± 11 | –
392.2 K | 243.2 ± 11 | –
416.55 K | 258.83 ± 12 | –
416.65 K | 260.09 ± 12 | –
416.76 K | 252.52 ± 12 | –
416.86 K | 257.99 ± 12 | –
416.97 K | 255.76 ± 12 | –
417.08 K | 261.47 ± 12 | –
417.18 K | 252.94 ± 12 | –
417.29 K | 253.84 ± 12 | –
417.4 K | 259.73 ± 12 | –
417.5 K | 261.17 ± 12 | –
442.12 K | 262.92 ± 12 | –
442.23 K | 265.86 ± 12 | –
442.33 K | 272.53 ± 13 | –
442.43 K | 265.68 ± 12 | –
442.54 K | 266.76 ± 12 | –
442.64 K | 267.6 ± 12 | –
442.74 K | 270.13 ± 13 | –
442.85 K | 265.86 ± 12 | –
463.48 K | 270.31 ± 13 | –
463.58 K | 271.63 ± 13 | –
463.78 K | 270.31 ± 13 | –
463.83 K | 274.63 ± 13 | –
463.97 K | 279.44 ± 13 | –
464.18 K | 278.72 ± 13 | –
464.27 K | 280.16 ± 13 | –
464.42 K | 278.24 ± 13 | –
464.97 K | 277.34 ± 13 | –
465.27 K | 272.77 ± 13 | –
465.34 K | 278.54 ± 13 | –
482.51 K | 288.1 ± 13 | –
482.6 K | 289.9 ± 13 | –
482.7 K | 288.46 ± 13 | –
482.8 K | 287.73 ± 13 | –
482.89 K | 288.34 ± 13 | –
482.99 K | 292 ± 14 | –
483.09 K | 287.19 ± 13 | –
483.18 K | 291.64 ± 14 | –
500.85 K | 316.94 ± 15 | –
500.95 K | 311.35 ± 14 | –
501.04 K | 310.87 ± 14 | –
501.14 K | 313.94 ± 15 | –
501.23 K | 314.06 ± 15 | –
501.33 K | 310.75 ± 14 | –
501.42 K | 316.76 ± 15 | –
501.53 K | 318.08 ± 15 | –
501.62 K | 320.49 ± 15 | –
501.81 K | 316.64 ± 15 | –
501.9 K | 317.06 ± 15 | –
503.92 K | 322.05 ± 15 | –
504.02 K | 325.72 ± 15 | –
504.11 K | 323.31 ± 15 | –
504.31 K | 318.86 ± 15 | –
504.5 K | 325.72 ± 15 | –
504.59 K | 319.65 ± 15 | –
504.98 K | 328.36 ± 15 | –
505.08 K | 326.92 ± 15 | –
505.27 K | 325.96 ± 15 | –
505.37 K | 325.35 ± 15 | –
506.43 K | 328.06 ± 15 | –
506.53 K | 330.64 ± 15 | –
506.62 K | 335.93 ± 16 | –
506.72 K | 332.69 ± 15 | –
506.82 K | 332.27 ± 15 | –
506.97 K | 330.22 ± 15 | –
507.11 K | 342.54 ± 16 | –
507.2 K | 339.6 ± 16 | –
507.3 K | 339.42 ± 16 | –
507.4 K | 335.93 ± 16 | –
507.5 K | 343.02 ± 16 | –
507.59 K | 338.94 ± 16 | –
507.69 K | 354.86 ± 16 | –
507.79 K | 347.95 ± 16 | –
507.89 K | 352.76 ± 16 | –
508.04 K | 358.17 ± 17 | –
508.16 K | 363.76 ± 17 | 218.14 ± 11
508.18 K | – | 208.53 ± 10
508.28 K | – | 195.91 ± 9.5
508.37 K | – | 187.8 ± 8.9
508.47 K | – | 185.69 ± 8.7
508.57 K | – | 186.9 ± 8.7
508.67 K | – | 192.91 ± 9
508.76 K | – | 186.9 ± 8.7
509.35 K | – | 179.56 ± 8.4
509.45 K | – | 180.16 ± 8.4
509.55 K | – | 178.84 ± 8.3
509.64 K | – | 179.98 ± 8.4
509.79 K | – | 177.46 ± 8.2
509.99 K | – | 177.28 ± 8.2
510.14 K | – | 178.12 ± 8.2
510.23 K | – | 177.94 ± 8.2
510.33 K | – | 176.68 ± 8.2
510.48 K | – | 178.6 ± 8.3
516.9 K | – | 176.74 ± 8.2
516.99 K | – | 176.8 ± 8.2
517.08 K | – | 176.8 ± 8.2
517.27 K | – | 172.17 ± 8
521.87 K | – | 173.13 ± 8.1
521.96 K | – | 168.57 ± 7.8
522.14 K | – | 173.19 ± 8.1
522.33 K | – | 168.63 ± 7.8
522.42 K | – | 171.63 ± 7.9
522.51 K | – | 173.85 ± 8.1
522.6 K | – | 175.18 ± 8.2
530.01 K | – | 168.39 ± 7.8
532.04 K | – | 168.27 ± 7.8
535.11 K | – | 168.33 ± 7.8
540.06 K | – | 168.39 ± 7.8
545.13 K | – | 168.63 ± 7.8
560.04 K | – | 169.77 ± 7.9
570.09 K | – | 173.85 ± 8.1
580.16 K | – | 174.22 ± 8.1
590.07 K | – | 176.38 ± 8.2
600.1 K | – | 178.6 ± 8.3
